One test concerns S. aureus. In words: Antimicrobial testing, time-kill with plate count. Format: cell-based, Staphylococcus aureus. The note with it: antimicrobial if greater than 5 log reduction. As for the experimental part: (§1) The preferred embodiment was tested for antimicrobial activity using the following procedure.
(§2) A 1% solution of Compound 3 was prepared in DPBS (Dulbecco's phosphate buffered saline). A 25 ml mixture of the 1% Compound 3 and PBS (phosphate buffered saline, pH 7.2 was prepared by mixing 5 ml of the 1% Compound 3 solution and 20 ml of the PBS.
(§3) A 10 ml aliquot of the above mixture was placed into each of two sterile test tubes. One test tube was inoculated with 0.1 ml of S. aureus and the other with 0.1 ml of P. aeruginosa, such that there was a final concentration of 10^6 colony-forming units (CFU)/0.1 mls.
(§4) A various time points, 1.0 ml of each inoculated test sample were removed, diluted 10× with 0.45% saline and plated on trypticase soy agar (TSA) plates.
(§5) The plates were incubated at 30-35° C. for not less than 24 hours. Concentration of CFU in the samples taken at each time point were enumerated by standard methods. The log reduction was calculated for each time period and organism. The log reduction was calculated using the formula: Log reduction=Log inoculums verification−sample log recovery.

A further test deals with P. aeruginosa. In words: Antimicrobial testing, time-kill with plate count. It is filed as cell-based, Pseudomonas aeruginosa. The settings on record: antimicrobial if greater than 5 log reduction. As for the experimental part: as §1, §2, §3, §4, §5

As for `CCCCCCCCCCCC(=O)OCC1O[C@H](O[C@@]2(CCl)O[C@H](CCl)C(O)C2O)C(O)C(O)[C@H]1Cl` (stereo in doubt) [Compound 3, 1′,6′-Dichloro-1′,6′-dideoxy-β-D-fructofuranosyl-4-chloro-4-deoxy-6-O-monododecanoate-α-galactopyranoside], the values for the antimicrobial effect result in the test with S. aureus and in the test on P. aeruginosa were “has antimicrobial effect against S. aureus” and “not P. aeruginosa”, respectively.
